Tests used:
[1] = target: PI3K alpha (Homo sapiens (Human), UniProt P42336); test: Enzymatic PI3K alpha isoform inhibition (lipid kinase activity, Kinase-Glo luminescence); format: biochemical; conditions: Enzymatic assay
How it was run: (§1)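 IC50s derive from 4-parameter logistic fits of % inhibition across 8 concentrations (usually 10 to 0.003 μM). Lipid kinase reaction: PI3K (10 nM) plus phosphatidylinositol (5 μg/mL) started with 2 μM ATP, stopped near 50% ATP depletion; leftover ATP quantified by Kinase-Glo luminescence.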

[2] = target: PI3K delta (Homo sapiens (Human), UniProt O00329); test: Enzymatic PI3K delta isoform inhibition (lipid kinase activity, Kinase-Glo luminescence); format: biochemical; conditions: Enzymatic assay
PI3K delta, sequence (O00329 other isoform, or with tags, fused parts or gaps linker GGGGGG): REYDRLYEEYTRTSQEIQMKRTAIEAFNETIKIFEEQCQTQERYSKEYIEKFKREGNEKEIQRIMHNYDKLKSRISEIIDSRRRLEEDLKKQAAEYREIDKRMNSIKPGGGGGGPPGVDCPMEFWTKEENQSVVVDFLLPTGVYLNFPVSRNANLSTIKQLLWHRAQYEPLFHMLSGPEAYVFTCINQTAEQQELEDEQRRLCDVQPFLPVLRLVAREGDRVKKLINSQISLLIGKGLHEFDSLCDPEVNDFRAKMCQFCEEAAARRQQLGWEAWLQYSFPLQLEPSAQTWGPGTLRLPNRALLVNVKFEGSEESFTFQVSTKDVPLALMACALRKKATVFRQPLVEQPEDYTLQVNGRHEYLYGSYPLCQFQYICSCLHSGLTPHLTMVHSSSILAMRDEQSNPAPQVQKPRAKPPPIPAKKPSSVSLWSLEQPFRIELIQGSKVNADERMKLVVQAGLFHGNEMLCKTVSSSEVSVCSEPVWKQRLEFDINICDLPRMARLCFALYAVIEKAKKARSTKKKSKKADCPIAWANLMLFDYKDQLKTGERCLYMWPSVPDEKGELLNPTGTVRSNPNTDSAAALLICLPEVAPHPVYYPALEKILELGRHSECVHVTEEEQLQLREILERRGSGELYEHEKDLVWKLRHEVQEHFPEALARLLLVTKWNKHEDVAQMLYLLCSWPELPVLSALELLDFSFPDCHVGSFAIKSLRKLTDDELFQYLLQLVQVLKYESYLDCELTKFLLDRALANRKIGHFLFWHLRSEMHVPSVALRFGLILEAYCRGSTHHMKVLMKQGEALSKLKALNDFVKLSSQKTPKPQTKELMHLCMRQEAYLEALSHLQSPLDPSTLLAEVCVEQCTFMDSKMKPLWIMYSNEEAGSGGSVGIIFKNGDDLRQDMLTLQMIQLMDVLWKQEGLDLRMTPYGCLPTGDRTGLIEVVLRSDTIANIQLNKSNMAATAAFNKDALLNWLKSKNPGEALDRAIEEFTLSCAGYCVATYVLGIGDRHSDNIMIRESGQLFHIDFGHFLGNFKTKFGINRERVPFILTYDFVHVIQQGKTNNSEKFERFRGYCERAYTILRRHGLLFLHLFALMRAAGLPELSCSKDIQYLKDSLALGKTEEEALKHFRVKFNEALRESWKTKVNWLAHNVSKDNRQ
How it was run: as §1

PI3K alpha, sequence (P42336 other isoform, or with tags, fused parts or gaps): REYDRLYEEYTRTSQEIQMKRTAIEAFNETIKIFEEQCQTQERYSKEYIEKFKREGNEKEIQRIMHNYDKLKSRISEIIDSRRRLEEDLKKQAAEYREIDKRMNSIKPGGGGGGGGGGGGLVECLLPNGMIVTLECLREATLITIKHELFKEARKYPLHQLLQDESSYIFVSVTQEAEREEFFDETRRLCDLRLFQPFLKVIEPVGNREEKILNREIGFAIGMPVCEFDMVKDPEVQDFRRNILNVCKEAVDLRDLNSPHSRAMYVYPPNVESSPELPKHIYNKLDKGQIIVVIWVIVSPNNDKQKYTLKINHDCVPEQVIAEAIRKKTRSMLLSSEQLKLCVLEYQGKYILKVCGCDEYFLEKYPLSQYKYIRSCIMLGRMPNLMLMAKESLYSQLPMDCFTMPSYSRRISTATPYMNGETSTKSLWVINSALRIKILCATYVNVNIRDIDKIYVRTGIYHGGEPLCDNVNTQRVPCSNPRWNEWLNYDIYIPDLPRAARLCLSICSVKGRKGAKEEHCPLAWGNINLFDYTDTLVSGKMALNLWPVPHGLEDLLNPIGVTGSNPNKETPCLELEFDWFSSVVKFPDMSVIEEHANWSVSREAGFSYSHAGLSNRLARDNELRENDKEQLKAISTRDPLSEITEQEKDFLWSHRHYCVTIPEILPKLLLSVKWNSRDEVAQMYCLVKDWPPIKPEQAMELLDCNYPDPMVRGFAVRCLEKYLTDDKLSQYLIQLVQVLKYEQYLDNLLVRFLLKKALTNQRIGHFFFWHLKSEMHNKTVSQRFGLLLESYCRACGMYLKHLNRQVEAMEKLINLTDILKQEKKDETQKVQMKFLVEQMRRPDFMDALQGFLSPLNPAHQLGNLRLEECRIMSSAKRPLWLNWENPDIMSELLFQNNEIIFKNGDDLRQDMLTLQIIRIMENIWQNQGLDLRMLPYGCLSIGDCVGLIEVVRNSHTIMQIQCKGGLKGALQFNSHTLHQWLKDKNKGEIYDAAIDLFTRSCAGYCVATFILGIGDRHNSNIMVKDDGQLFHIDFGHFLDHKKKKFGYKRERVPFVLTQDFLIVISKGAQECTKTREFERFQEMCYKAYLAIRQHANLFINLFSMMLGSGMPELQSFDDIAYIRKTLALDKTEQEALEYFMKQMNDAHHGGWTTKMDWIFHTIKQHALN

IC50 [1] [nM]	IC50 [2] [nM]	SMILES
383	17	COc1ncc(N2CCOc3ccc(O[C@H]4CCN(C(=O)c5cnccn5)C4)cc32)cc1C#N [Example C15, 2-Methoxy-5-{6-[(S)-1-(pyrazine-2-carbonyl)-pyrrolidin-3-yloxy]-2,3-dihydro-benzo[1,4]oxazin-4-yl}-nicotinonitrile]
577	3	COc1ncc(N2CCOc3cnc(O[C@H]4CCN(C(=O)C5CCOCC5)C4)cc32)cc1C#N [Example F4, 2-Methoxy-5-{7-[(S)-1-(tetrahydro-pyran-4-carbonyl)-pyrrolidin-3-yloxy]-2,3-dihydro-pyrido[3,4-b][1,4]oxazin-1-yl}-nicotinonitrile]
846	53	COc1cc(N2CCOc3ccc(O[C@H]4CCN(C(=O)C5COCCO5)C4)cc32)cnc1OC (single isomer, unassigned) [Example H6]
147	15	COc1ncc(N2CCOc3ccc(O[C@H]4CCN(C(=O)c5cn[nH]c5)C4)cc32)cc1C#N [Example C10, 2-Methoxy-5-{6-[(S)-1-(1H-pyrazole-4-carbonyl)-pyrrolidin-3-yloxy]-2,3-dihydro-benzo[1,4]oxazin-4-yl}-nicotinonitrile]
425	12	COc1ncc(N2CCOc3ccc(O[C@H]4CCN(C(=O)c5cn(C)nc5C)C4)cc32)cc1C#N [Example C18, 5-{6-[(S)-1-(1,3-Dimethyl-1H-pyrazole-4-carbonyl)-pyrrolidin-3-yloxy]-2,3-dihydro-benzo[1,4]oxazin-4-yl}-2-methoxy-nicotinonitrile]
4260	181	COc1ncc(N2c3cc(O[C@H]4CCN(C(=O)C5CCOCC5)C4)ccc3OCC2C)cc1C#N (stereo partly drawn) [Example C6, 2-Methoxy-5-{3-methyl-6-[(S)-1-(tetrahydro-pyran-4-carbonyl)-pyrrolidin-3-yloxy]-2,3-dihydro-benzo[1,4]oxazin-4-yl}-nicotinonitrile]
705	12	COc1ncc(N2CCOc3ccc(O[C@H]4CCN(C(=O)c5ccc(=O)n(C)c5)C4)cc32)cc1C#N [Example D17, 2-Methoxy-5-{6-[(S)-1-(1-methyl-6-oxo-1,6-dihydro-pyridine-3-carbonyl)-pyrrolidin-3-yloxy]-2,3-dihydro-benzo[1,4]oxazin-4-yl}-nicotinonitrile]
117	8	COc1ncc(N2CCOc3ccc(O[C@H]4CCN(C(=O)c5ocnc5C)C4)cc32)cc1C#N [Example D33, 2-Methoxy-5-{6-[(S)-1-(4-methyl-oxazole-5-carbonyl)-pyrrolidin-3-yloxy]-2,3-dihydro-benzo[1,4]oxazin-4-yl}-nicotinonitrile]
1570	64	COc1ncc(N2CCOc3ccc(O[C@H]4CCN(C(=O)c5cnn(C)c5)C4)cc32)cc1C#N [Example D27, 2-Methoxy-5-{6-[(S)-1-(1-methyl-1H-pyrazole-4-carbonyl)-pyrrolidin-3-yloxy]-2,3-dihydro-benzo[1,4]oxazin-4-yl}-nicotinonitrile]
229	13	Cc1cc(N2CCOc3cnc(O[C@H]4CCN(C(=O)c5cn(C)cn5)C4)cc32)cnc1OC(F)F [Example E10, {(S)-3-[1-(6-Difluoromethoxy-5-methyl-pyridin-3-yl)-2,3-dihydro-1H-pyrido[3,4-b][1,4]oxazin-7-yloxy]-pyrrolidin-1-yl}-(1-methyl-1H-imidazol-4-yl)-methanone]
530	7	COc1ncc(N2CCOc3ccc(O[C@H]4CCN(C(=O)C5CCS(=O)(=O)C5)C4)cc32)cc1F (single isomer, unassigned) [Example H12]
298	127	COc1ncc(N2CCOc3ccc(O[C@H]4CCN(C(=O)Cc5cn(C)cn5)C4)cc32)cc1C#N [Example D37, 2-Methoxy-5-(6-{(S)-1-[2-(1-methyl-1H-imidazol-4-yl)-acetyl]-pyrrolidin-3-yloxy}-2,3-dihydro-benzo[1,4]oxazin-4-yl)-nicotinonitrile]
> 9100	7080	COc1ncc(N2CCOc3ccc(O[C@@H]4CON(C(=O)C5CCOCC5)C4)cc32)cc1C#N [Example D24, 2-Methoxy-5-{6-[(S)-2-(tetrahydro-pyran-4-carbonyl)-isoxazolidin-4-yloxy]-2,3-dihydro-benzo[1,4]oxazin-4-yl}-nicotinonitrile]
725	5	COc1ncc(N2CCOc3cnc(O[C@H]4CCN(C(=O)C5CCS(=O)(=O)CC5)C4)cc32)cc1F [Example F2, (1,1-Dioxo-hexahydro-1lambda*6*-thiopyran-4-yl)-{(S)-3-[1-(5-fluoro-6-methoxy-pyridin-3-yl)-2,3-dihydro-1H-pyrido[3,4-b][1,4]oxazin-7-yloxy]-pyrrolidin-1-yl}-methanone]
704	25	COc1ncc(N2CCOc3ccc(O[C@H]4CCN(C(=O)[C@@H]5CCNC5)C4)cc32)cc1C#N [Example D40, 2-methoxy-5-{6-[(S)-1-((R)-pyrrolidine-3-carbonyl)-pyrrolidin-3-yloxy]-2,3-dihydro-benzo[1,4]oxazin-4-yl}-nicotinonitrile]
848	11	Cc1cc(N2CCOc3ccc(O[C@H]4CCN(C(=O)C5COCCO5)C4)cc32)cnc1S(C)(=O)=O (single isomer, unassigned) [Example H4]

More lines, now with the values behind:

SMILES	IC50 [1] [nM]	IC50 [2] [nM]
COCCC(=O)N1CC[C@H](Oc2ccc3c(c2)N(c2cnc(S(C)(=O)=O)c(C)c2)CCO3)C1 [Example B37, 1-{(S)-3-[4-(6-Methanesulfonyl-5-methyl-pyridin-3-yl)-3,4-dihydro-2H-benzo[1,4]oxazin-6-yloxy]-pyrrolidin-1-yl}-3-methoxy-propan-1-one]	1100	103
COc1ncc(N2CCOc3ccc(O[C@H]4CCN(C(=O)CC#N)C4)cc32)cc1F [Example B116, 3-{(S)-3-[4-(5-Fluoro-6-methoxy-pyridin-3-yl)-3,4-dihydro-2H-benzo[1,4]oxazin-6-yloxy]-pyrrolidin-1-yl}-3-oxo-propionitrile]	304	22
CCC(=O)N1CC[C@H](Oc2ccc3c(c2)N(c2cnc(Cl)c(C)c2)CCO3)C1 [Example B59, 1-{(S)-3-[4-(6-Chloro-5-methyl-pyridin-3-yl)-3,4-dihydro-2H-benzo[1,4]oxazin-6-yloxy]-pyrrolidin-1-yl}-propan-1-one]	461	17
CCC(=O)N1CC[C@H](Oc2ccc3c(c2)N(c2ccc(S(C)(=O)=O)nc2)CCO3)C1 [Example A8, 1-{(S)-3-[4-(6-Methanesulfonyl-pyridin-3-yl)-3,4-dihydro-2H-benzo[1,4]oxazin-6-yloxy]-pyrrolidin-1-yl}-propan-1-one]	5930	40
COc1ncc(N2CCOc3ccc(O[C@H]4CCN(C(=O)C5CCS(=O)(=O)CC5)C4)cc32)cc1C(F)(F)F [Example B14, (1,1-Dioxo-hexahydro-1lambda*6*-thiopyran-4-yl)-{(S)-3-[4-(6-methoxy-5-trifluoromethyl-pyridin-3-yl)-3,4-dihydro-2H-benzo[1,4]oxazin-6-yloxy]-pyrrolidin-1-yl}-methanone]	244	6
COc1ncc(N2CCOc3ccc(O[C@H]4CCN(C(=O)c5ccn(C)n5)C4)cc32)cc1C [Example B21, {(S)-3-[4-(6-Methoxy-5-methyl-pyridin-3-yl)-3,4-dihydro-2H-benzo[1,4]oxazin-6-yloxy]-pyrrolidin-1-yl}-(1-methyl-1H-pyrazol-3-yl)-methanone]	666	13
Cc1cc(N2CCOc3ccc(O[C@H]4CCN(C(=O)C5CCOC5)C4)cc32)cnc1S(C)(=O)=O (stereo partly drawn) [Example B31, {(S)-3-[4-(6-Methanesulfonyl-5-methyl-pyridin-3-yl)-3,4-dihydro-2H-benzo[1,4]oxazin-6-yloxy]-pyrrolidin-1-yl}-(tetrahydro-furan-3-yl)-methanone]	977	3
CNc1cc(N2CCOc3ccc(O[C@H]4CCN(C(=O)C5CCOCC5)C4)cc32)cnc1S(C)(=O)=O [Example B77, {(S)-3-[4-(6-Methanesulfonyl-5-methylamino-pyridin-3-yl)-3,4-dihydro-2H-benzo[1,4]oxazin-6-yloxy]-pyrrolidin-1-yl}-(tetrahydro-pyran-4-yl)-methanone]	897	32
Cc1cc(N2CCOc3ccc(O[C@H]4CCN(C(=O)CCO)C4)cc32)cnc1Cl [Example B61, 1-{(S)-3-[4-(6-Chloro-5-methyl-pyridin-3-yl)-3,4-dihydro-2H-benzo[1,4]oxazin-6-yloxy]-pyrrolidin-1-yl}-3-hydroxy-propan-1-one]	732	37
COCC(=O)N1CC[C@H](Oc2ccc3c(c2)N(c2cnc(OC)c(F)c2)CCO3)C1 [Example B99, 1-{(S)-3-[4-(5-Fluoro-6-methoxy-pyridin-3-yl)-3,4-dihydro-2H-benzo[1,4]oxazin-6-yloxy]-pyrrolidin-1-yl}-2-methoxy-ethanone]	302	57
COc1ncc(N2CCOc3ccc(O[C@H]4CCN(C(=O)C5CCOCC5)C4)cc32)cc1F [Example B18]	723	12
COc1ncc(N2CCOc3ccc(O[C@H]4CCN(C(=O)C5CCN(C(C)=O)CC5)C4)cc32)cc1C [Example B90, 1-(4-{(S)-3-[4-(6-Methoxy-5-methyl-pyridin-3-yl)-3,4-dihydro-2H-benzo[1,4]oxazin-6-yloxy]-pyrrolidine-1-carbonyl}-piperidin-1-yl)-ethanone]	1460	11
COc1cc(N2CCOc3ccc(O[C@H]4CCN(C(=O)C5CCCOC5)C4)cc32)cnc1OC (stereo partly drawn) [Example B43, {(S)-3-[4-(5,6-Dimethoxy-pyridin-3-yl)-3,4-dihydro-2H-benzo[1,4]oxazin-6-yloxy]-pyrrolidin-1-yl}-(tetrahydro-pyran-3-yl)-methanone]	514	57

From patent US9539260B2, “Dihydro-benzo-oxazine and dihydro-pyrido-oxazine derivatives” (Novartis AG, priority 2012, dated 2017)
